Measured values from patent publication US5089623A, “Certain imidate insecticides” (Imperial Chemical Industries Plc, priority 1990, dated 1992).

Assays:
Format in all cases: in vivo
[1] = system: Housefly [Musca domestica]; experiment: Housefly insecticidal test (HF); settings: per 25 female houseflies, 48 hours
[2] = system: Maize weevil [Sitophilus Zeamais (Motschulsky)]; experiment: Maize weevil test (MW); settings: adult weevils, treated corn seeds, 48 hours, percent in solution
How it was run: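 Adult weevils (10) were placed with four corn seeds that had been dipped 2-3 s in compound dissolved in 50:50 acetone:water, then dried, and held at about 25° C. Mortality was scored at 48 h. LC50 was taken from dosage-mortality curves and expressed as percent compound in solution, from a 0.01% top concentration.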

[3] = system: Cabbage Looper [Trichoplusia ni (Hubner)]; experiment: Cabbage looper test (CL); settings: second-instar larvae, 3-5 days, percent in solution
[4] = system: Aster Leafhopper [Macrosteles fascifrens (Stal)]; experiment: Aster leafhopper test (LH); settings: adults/nymphs, 48 hours, percent in solution
[5] = system: Tobacco Budworm [Heliothis virescens (Fabricius)] eggs; experiment: Tobacco budworm egg test (TBW-E); settings: percent in solution

Structure (SMILES): CC(C)C(=Nc1ccccc1Cl)OCc1cccc(Oc2ccccc2)c1 [Compound 17]
- LC50 HF [1]: 75 µg
- LC50 MW [2]: > 0.01%
- LC50 CL [3]: 0.03%
- LC50 LH [4]: > 0.05%
- LC50 TBW E [5]: > 0.1%

Structure (SMILES): N#CC(=Nc1ccc(Cl)cc1)OCc1cccc(Oc2ccccc2)c1 [Compound 21]
- LC50 HF [1]: 7 µg
- LC50 MW [2]: > 0.01%
- LC50 CL [3]: 0.02%
- LC50 LH [4]: > 0.05%
- LC50 TBW E [5]: > 0.1%

Structure (SMILES): CC(C)(C)C(=Nc1ccc(Cl)c(Cl)c1)OCc1cccc(Oc2ccccc2)c1 [Compound 25]
- LC50 HF [1]: > 100 µg
- LC50 MW [2]: > 0.01%
- LC50 CL [3]: 0.01%
- LC50 LH [4]: > 0.05%
- LC50 TBW E [5]: > 0.1%

Structure (SMILES): FC(F)(F)C(=Nc1ccc(Cl)cc1)OCc1cccc(Oc2ccccc2)c1 [Compound 35]
- LC50 HF [1]: 15 µg
- LC50 MW [2]: > 0.01%
- LC50 CL [3]: 0.008%
- LC50 LH [4]: > 0.05%
- LC50 TBW E [5]: 0.03%

Structure (SMILES): CC(C)C(=Nc1ccccc1)OCc1cccc(Oc2ccccc2)c1 [Compound 43]
- LC50 HF [1]: 7 µg
- LC50 MW [2]: > 0.01%
- LC50 CL [3]: 0.018%
- LC50 LH [4]: > 0.05%
- LC50 TBW E [5]: 0.05%

Structure (SMILES): Fc1ccc(N=C(OCc2cccc(Oc3ccccc3)c2)C(F)F)cc1 [Compound 50]
- LC50 HF [1]: 43 µg
- LC50 MW [2]: > 0.01%
- LC50 CL [3]: 0.02%
- LC50 LH [4]: > 0.05%
- LC50 TBW E [5]: > 0.05%

Structure (SMILES): CC(C)C(=Nc1ccccc1C(F)(F)F)OCc1cccc(Oc2ccccc2)c1 [Compound 72]
- LC50 HF [1]: > 100 µg
- LC50 MW [2]: > 0.01%
- LC50 CL [3]: 0.08%
- LC50 LH [4]: > 0.05%
- LC50 TBW E [5]: > 0.1%

Structure (SMILES): CCS(=O)(=O)c1ccc(N=C(OCc2cccc(Oc3ccccc3)c2)C(C)C)cc1Cl [Compound 112]
- LC50 HF [1]: > 100 µg
- LC50 MW [2]: > 0.01%
- LC50 CL [3]: 0.025%
- LC50 LH [4]: > 0.05%
- LC50 TBW E [5]: > 0.1%

Structure (SMILES): Fc1ccc(N=C(OCc2cccc(Oc3ccccc3)c2)C(F)(F)C(F)(F)F)cc1Cl [Compound 117]
- LC50 HF [1]: 55 µg
- LC50 MW [2]: > 0.01%
- LC50 CL [3]: 0.006%
- LC50 LH [4]: 0.0003%
- LC50 TBW E [5]: > 0.1%

Structure (SMILES): CC(C)C(=Nc1ccc(F)c(Cl)c1)OCc1cccc(Oc2ccccc2F)c1 [Compound 119]
- LC50 HF [1]: 27 µg
- LC50 MW [2]: > 0.01%
- LC50 CL [3]: 0.0007%
- LC50 LH [4]: 0.0008%
- LC50 TBW E [5]: 0.048%

Structure (SMILES): CC1(C)C(C(=Nc2ccc(F)c(Cl)c2)OCc2cccc(Oc3ccccc3)c2)C1(C)C [Compound 124]
- LC50 HF [1]: 17 µg
- LC50 MW [2]: > 0.01%
- LC50 CL [3]: 0.01%
- LC50 LH [4]: > 0.05%
- LC50 TBW E [5]: > 0.1%

Structure (SMILES): CC(C)C(=Nc1cccc(Br)c1)OCc1cccc(Oc2ccccc2)c1 [Compound 128]
- LC50 HF [1]: 4.5 µg
- LC50 MW [2]: > 0.01%
- LC50 CL [3]: 0.005%
- LC50 LH [4]: 0.003%
- LC50 TBW E [5]: 0.037%

Structure (SMILES): CC(C)C(=Nc1ccccc1Br)OCc1cccc(Oc2ccccc2)c1 [Compound 132]
- LC50 HF [1]: 65 µg
- LC50 MW [2]: > 0.01%
- LC50 CL [3]: 0.025%
- LC50 LH [4]: > 0.05%
- LC50 TBW E [5]: > 0.1%

Structure (SMILES): CSc1ccc(N=C(OCc2cccc(Oc3ccccc3)c2)C(C)C)cc1 [Compound 142]
- LC50 HF [1]: 15 µg
- LC50 MW [2]: > 0.01%
- LC50 CL [3]: 0.005%
- LC50 LH [4]: > 0.05%
- LC50 TBW E [5]: 0.1%

Structure (SMILES): COc1cccc(N=C(OCc2cccc(Oc3ccccc3)c2)C(C)C)c1 [Compound 143]
- LC50 HF [1]: 10 µg
- LC50 MW [2]: > 0.01%
- LC50 CL [3]: 0.002%
- LC50 LH [4]: 0.006%
- LC50 TBW E [5]: < 0.1%

Structure (SMILES): COC(=O)c1ccc(N=C(OCc2cccc(Oc3ccccc3)c2)C(C)C)cc1 [Compound 151]
- LC50 HF [1]: 38 µg
- LC50 MW [2]: > 0.01%
- LC50 CL [3]: 0.009%
- LC50 LH [4]: > 0.05%
- LC50 TBW E [5]: > 0.1%

Structure (SMILES): CC(C)C(=Nc1ccc(C(C)(C)C)cc1)OCc1cccc(Oc2ccccc2)c1 [Compound 153]
- LC50 HF [1]: > 100 µg
- LC50 MW [2]: > 0.01%
- LC50 CL [3]: 0.004%
- LC50 LH [4]: 0.0005%
- LC50 TBW E [5]: 0.1%

Structure (SMILES): Cc1cccc(N=C(OCc2cccc(Oc3ccccc3)c2)C(C)C)c1 [Compound 155]
- LC50 HF [1]: 9 µg
- LC50 MW [2]: > 0.01%
- LC50 CL [3]: 0.004%
- LC50 LH [4]: > 0.05%
- LC50 TBW E [5]: 0.06%

Structure (SMILES): Cc1ccc(N=C(OCc2cccc(Oc3ccccc3)c2)C(C)C)cc1 [Compound 156]
- LC50 HF [1]: 10 µg
- LC50 MW [2]: > 0.01%
- LC50 CL [3]: 0.004%
- LC50 LH [4]: > 0.05%
- LC50 TBW E [5]: 0.05%

Structure (SMILES): COc1ccc(N=C(OCc2cccc(Oc3ccccc3)c2)C(C)C)cc1 [Compound 160]
- LC50 HF [1]: 7 µg
- LC50 MW [2]: > 0.01%
- LC50 CL [3]: 0.005%
- LC50 LH [4]: 0.05%
- LC50 TBW E [5]: 0.09%

Structure (SMILES): CC(C)C(=Nc1ccc(C#N)cc1)OCc1cccc(Oc2ccccc2)c1 [Compound 172]
- LC50 HF [1]: 5 µg
- LC50 MW [2]: > 0.01%
- LC50 CL [3]: 0.002%
- LC50 LH [4]: > 0.05%
- LC50 TBW E [5]: 0.04%

Structure (SMILES): c1ccc(Oc2cccc(COC(=Nc3ccc4c(c3)OCO4)C3CC3)c2)cc1 [Compound 177]
- LC50 HF [1]: 13 µg
- LC50 MW [2]: 0.01%
- LC50 CL [3]: 0.002%
- LC50 LH [4]: > 0.05%
- LC50 TBW E [5]: > 0.1%

Structure (SMILES): CCC(=Nc1ccc2c(c1)OCO2)OCc1cccc(Oc2ccccc2)c1 [Compound 178]
- LC50 HF [1]: 6 µg
- LC50 MW [2]: > 0.01%
- LC50 CL [3]: 0.004%
- LC50 LH [4]: > 0.05%
- LC50 TBW E [5]: > 0.1%

Structure (SMILES): CC(C)C(=Nc1ccc(-c2ccccc2)cc1)OCc1cccc(Oc2ccccc2)c1 [Compound 186]
- LC50 HF [1]: > 100 µg
- LC50 MW [2]: > 0.01%
- LC50 CL [3]: 0.008%
- LC50 LH [4]: > 0.05%
- LC50 TBW E [5]: > 0.1%

Structure (SMILES): CC(C)C(=Nc1ccc(Cl)cc1)OCc1cccc(Oc2ccc(F)cc2)c1 [Compound 189]
- LC50 HF [1]: 17 µg
- LC50 MW [2]: > 0.01%
- LC50 CL [3]: 0.00027%
- LC50 LH [4]: 0.002%
- LC50 TBW E [5]: 0.07%

Structure (SMILES): CC(C)C(=Nc1ccc(Cl)c(C(F)(F)F)c1)OCc1cccc(Oc2ccc(F)cc2)c1 [Compound 193]
- LC50 HF [1]: 100 µg
- LC50 MW [2]: > 0.01%
- LC50 CL [3]: 0.00075%
- LC50 LH [4]: 0.001%
- LC50 TBW E [5]: > 0.1%

Structure (SMILES): CC(C)C(=Nc1ccc(F)c(Cl)c1)OCc1cccc(Oc2ccc(F)c(F)c2)c1 [Compound 217]
- LC50 HF [1]: 8 µg
- LC50 MW [2]: 0.0084%
- LC50 CL [3]: 0.00006%
- LC50 LH [4]: > 0.05%
- LC50 TBW E [5]: 0.015%

Structure (SMILES): CC(C)C(=Nc1ccc2c(c1)OCO2)OCc1cccc(Oc2ccc(Cl)cc2)c1 [Compound 240]
- LC50 HF [1]: 14 µg
- LC50 MW [2]: > 0.01%
- LC50 CL [3]: 0.0003%
- LC50 LH [4]: > 0.05%
- LC50 TBW E [5]: 0.04%

Structure (SMILES): CC(C)C(=Nc1cccc(I)c1)OCc1cccc(Oc2ccc(F)cc2)c1 [Compound 255]
- LC50 HF [1]: 16 µg
- LC50 MW [2]: > 0.01%
- LC50 CL [3]: 0.00017%
- LC50 LH [4]: 0.0005%
- LC50 TBW E [5]: 0.075%

Structure (SMILES): CSc1ccc(Oc2cccc(COC(=Nc3ccc(F)c(Cl)c3)C(C)C)c2)cc1 [Compound 256]
- LC50 HF [1]: > 100 µg
- LC50 MW [2]: > 0.01%
- LC50 CL [3]: 0.007%
- LC50 LH [4]: > 0.05%
- LC50 TBW E [5]: 0.1%

Structure (SMILES): CC(C)C(=Nc1ccc(F)cc1)OCc1cccc(Oc2ccc(Br)cc2)c1 [Compound 259]
- LC50 HF [1]: 15 µg
- LC50 MW [2]: > 0.01%
- LC50 CL [3]: 0.0003%
- LC50 LH [4]: > 0.05%
- LC50 TBW E [5]: 0.05%

Structure (SMILES): CC(C)C(=Nc1ccc(F)c([N+](=O)[O-])c1)OCc1cccc(Oc2ccccc2)c1 [Compound 293]
- LC50 HF [1]: 19 µg
- LC50 MW [2]: > 0.01%
- LC50 CL [3]: 0.0045%
- LC50 LH [4]: > 0.05%
- LC50 TBW E [5]: > 0.1%

Structure (SMILES): CC(C)(F)C(=Nc1ccc(F)c(Cl)c1)OCc1cccc(Oc2ccc(F)cc2F)c1 [Compound 315]
- LC50 HF [1]: > 100 µg
- LC50 MW [2]: > 0.01%
- LC50 CL [3]: 0.002%
- LC50 LH [4]: > 0.05%
- LC50 TBW E [5]: > 0.1%

Structure (SMILES): CC(C)(F)C(=Nc1ccc(F)c(Cl)c1)OCc1cc(Oc2ccc(F)cc2)ccc1F [Compound 316]
- LC50 HF [1]: 100 µg
- LC50 MW [2]: > 0.01%
- LC50 CL [3]: 0.0015%
- LC50 LH [4]: > 0.05%
- LC50 TBW E [5]: > 0.1%

Structure (SMILES): CC(C)C(=Nc1cccc(C(C)(C)C)c1)OCc1cccc(Oc2ccc(F)cc2)c1 [Compound 350]
- LC50 HF [1]: > 100 µg
- LC50 MW [2]: > 0.01%
- LC50 CL [3]: 0.0045%
- LC50 LH [4]: > 0.05%
- LC50 TBW E [5]: > 0.1%

Structure (SMILES): CC(C)C(=Nc1ccc(Br)cc1F)OCc1cccc(Oc2ccc(F)cc2)c1 [Compound 351]
- LC50 HF [1]: 26 µg
- LC50 MW [2]: > 0.01%
- LC50 CL [3]: 0.0007%
- LC50 LH [4]: > 0.05%
- LC50 TBW E [5]: > 0.1%

Structure (SMILES): CSc1ccc(N=C(OCc2ccc(F)c(Oc3ccccc3)c2)C(C)C)cc1 [Compound 353]
- LC50 HF [1]: < 100 µg
- LC50 MW [2]: > 0.01%
- LC50 CL [3]: > 0.1%
- LC50 LH [4]: > 0.05%
- LC50 TBW E [5]: > 0.1%

Structure (SMILES): Cc1ccc(N=C(OCc2ccc(F)c(Oc3ccccc3)c2)C(C)C)cc1F [Compound 354]
- LC50 HF [1]: < 100 µg
- LC50 MW [2]: 0.0068%
- LC50 CL [3]: > 0.1%
- LC50 LH [4]: < 0.05%
- LC50 TBW E [5]: 0.018%
